Here are results for 34 compounds from patent US10968169B2, “Urea derivative” (Daiichi Sankyo Company, Limited, priority 2016, dated 2021).

tryptophanase of Bacteroides thetaiotamicron, sequence (Q8A7N2 entry or part of it, change not shown): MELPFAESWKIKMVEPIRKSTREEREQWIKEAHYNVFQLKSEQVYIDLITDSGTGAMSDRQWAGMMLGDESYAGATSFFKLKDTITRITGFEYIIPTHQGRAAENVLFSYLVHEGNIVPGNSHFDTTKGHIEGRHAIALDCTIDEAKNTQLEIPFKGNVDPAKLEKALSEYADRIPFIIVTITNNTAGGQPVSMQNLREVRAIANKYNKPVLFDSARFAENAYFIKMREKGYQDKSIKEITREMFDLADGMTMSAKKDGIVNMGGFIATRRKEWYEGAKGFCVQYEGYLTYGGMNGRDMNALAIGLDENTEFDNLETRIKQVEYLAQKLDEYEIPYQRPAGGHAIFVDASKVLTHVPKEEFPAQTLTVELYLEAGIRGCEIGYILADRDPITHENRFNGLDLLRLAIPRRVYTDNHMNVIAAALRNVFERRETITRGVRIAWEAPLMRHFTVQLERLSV

In this assay the target is tryptophanase of Bacteroides thetaiotamicron (Bacteroides thetaiotaomicron, UniProt Q8A7N2). In words: Tryptophanase enzyme inhibitory activity (LDH-coupled NADH loss). Conditions: L-tryptophan 10 mM, 37° C., absorbance at 340 nm; read-out: Bacteroides Activity of Inhibiting Tryptophanase (IC50). The class given is biochemical. On the procedure:
Tryptophanase inhibitory activity was evaluated by a method using lactate dehydrogenase (LDH). The reaction time-dependent reduction in NADH conjugated with the enzymatic reaction, with LDH, of pyruvic acid produced through the enzymatic reaction of L-tryptophan as a substrate with tryptophanase, was measured with a spectrophotometer (Phillips-R S et al., Biochemistry, 23, 6228-6234 (1984)). Enzyme inhibitory activity obtained without adding a test compound (by adding DMSO alone) in the presence of tryptophanase was used as a control. As the enzyme, tryptophanase of Bacteroides thetaiotamicron (Genbank accession number: HC914434.1) was used. A test compound solution was prepared by dissolving each test compound in DMSO in an arbitrary concentration (from 30 mM to 30 nM at 10-fold common ratio). LDH, NADH and L-tryptophan were prepared, using distilled water, respectively to concentrations of 80 units/mL, 10 mM and […]. Bacteroides tryptophanase was prepared to 30 mg/mL. A potassium phosphate buffer was used as the buffer. [table] A reaction solution A was dispensed at 284.8 μL per well into a 96-well plate, and the test compound solution was added at 3.2 μL per well to obtain a final concentration of 1/100 (reaction solution B). The reaction solution B was incubated at 37° C. for 30 minutes, L-tryptophan was added thereto at 32 μL per well to obtain a final concentration of 10 mM (reaction solution C), and the enzyme reaction was performed at 37° C. over 30 minutes with absorbance at 340 nm measured for monitoring the NADH loss. Based on the NADH loss, the tryptophanase inhibitory activity of the compound was evaluated. Besides, the following compounds were similarly tested instead of the test compound.
In general, IC50 refers to the midpoint of a concentration-inhibition curve. Regarding `CCC(NC(=O)Nc1ccc(OC(F)F)cc1)(C(=O)O)C1CC1` (stereo not shown) [Example 11, 2-Cyclopropyl-2-({[4-(difluoromethoxy)phenyl]carbamoyl}amino)butanoic acid], the half-inhibitory concentration (IC50) came out at 0.6 µM.
Take `CCC(CC)(NC(=O)Nc1ccc(OC(F)(F)F)cc1)C(=O)O` [Example 1, 2-Ethyl-2-({[4-(trifluoromethoxy)phenyl]carbamoyl}amino)butanoic acid]: the IC50 was found to be 3.7 µM.
To `CCC(NC(=O)Nc1ccc(F)cc1)(C(=O)O)C1CC1` (stereo not shown) [Example 23, 2-Cyclopropyl-2-{[(4-fluorophenyl)carbamoyl]amino}butanoic acid] belongs 5.2 µM; to `CCC(CC)(NC(=O)Nc1ccc(C2(C#N)CC2)cc1)C(=O)O` [Example 39, 2-({[4-(1-Cyanocyclopropyl)phenyl]carbamoyl}amino)-2-ethylbutanoic acid], 5.2 µM.
As for `CCC(CC)(NC(=O)Nc1ccc(N2CCCCC2)cc1)C(=O)O` [Example 43], the IC50 worked out at 1.6 µM.
For `CCC(CC)(NC(=O)Nc1ccc(-c2ccccc2)cc1)C(=O)O` [Example 41, 2-[(Biphenyl-4-ylcarbamoyl)amino]-2-ethylbutanoic acid], the half-inhibitory concentration (IC50) worked out at 0.3 µM.
The result for `CCC(CC)(NC(=O)Nc1ccc(-c2ccccc2F)cc1)C(=O)O` [Example 42, 2-Ethyl-2-{[(2′-fluorobiphenyl-4-yl)carbamoyl]amino}butanoic acid] reads 0.1 µM.
To `O=C(Nc1ccccc1)NC(C(=O)O)(C1CC1)C1CC1` [Example 21, Dicyclopropyl[(phenylcarbamoyl)amino]acetic acid] belongs 5 µM.
The result for `CCC(NC(=O)Nc1ccccc1)(C(=O)O)C1CC1` (stereo not shown) [Example 22, 2-Cyclopropyl-2-[(phenylcarbamoyl)amino]butanoic acid] reads 2.1 µM; that for `CC[C@@](C)(NC(=O)Nc1ccc(CC(F)(F)F)cc1)C(=O)O` [Example 13, N-{[4-(2,2,2-Trifluoroethyl)phenyl]carbamoyl}-D-isovaline], 6.7 µM; that for `CCC(NC(=O)Nc1ccc(OC(F)(F)F)cc1)(C(=O)O)C1CC1` (stereo not shown) [Example 7, 2-Cyclopropyl-2-({[4-(trifluoromethoxy)phenyl]carbamoyl}amino)butanoic acid], 0.3 µM.
For `CCC(CC)(NC(=O)Nc1ccc(N2CCC(F)(F)C2)cc1)C(=O)O` [Example 44, 2-({[4-(3,3-Difluoropyrrolidine-1-yl)phenyl]carbamoyl}amino)-2-ethylbutanoic acid], the concentration for half-maximal inhibition (IC50) amounted to 2.5 µM.
For `N#Cc1ccc(NC(=O)NC(C(=O)O)(C2CC2)C2CC2)cc1` [Example 35, {[(4-Cyanophenyl)carbamoyl]amino}(dicyclopropyl)acetic acid], the 50% inhibitory concentration (IC50) is 10.9 µM.
To `CCC(CC)(NC(=O)Nc1ccc(OC(F)F)cc1F)C(=O)O` [Example 16, 2-({[4-(Difluoromethoxy)-2-fluorophenyl]carbamoyl}amino)-2-ethylbutanoic acid] belongs 4.2 µM.
To `CC(NC(=O)Nc1ccc(OC(F)(F)F)cc1)(C(=O)O)C1CC1` (stereo not shown) [Example 2, 2-Cyclopropyl-2-({[4-(trifluoromethoxy)phenyl]carbamoyl}amino)propanoic acid] belongs 20.3 µM; to `O=C(Nc1ccc(OC(F)F)cc1)NC(C(=O)O)(C1CC1)C1CC1` [Example 10, Dicyclopropyl({[4-(difluoromethoxy)phenyl]carbamoyl}amino)acetic acid], 1.9 µM.
Take `N#Cc1cccc(NC(=O)NC(C(=O)O)(C2CC2)C2CC2)c1` [Example 34, {[(3-Cyanophenyl)carbamoyl]amino}(dicyclopropyl)acetic acid]: the half-maximal inhibitory concentration (IC50) was determined as 1.8 µM.
As for `CC[C@@](C)(NC(=O)Nc1ccc(OC(F)(F)F)cc1)C(=O)O` [Example 4, (−)-N-{[4-(Trifluoromethoxy)phenyl]carbamoyl}-D-isovaline], the IC50 was 8.8 µM.
Turning to `CCC(CC)(NC(=O)Nc1ccc(Cl)c(C#N)c1)C(=O)O` [Example 37, 2-{[(4-Chloro-3-cyanophenyl)carbamoyl]amino}-2-ethylbutanoic acid], the IC50 was found to be 25 µM.
To `CCC(CC)(NC(=O)Nc1ccc(C(F)(F)F)cc1)C(=O)O` [Example 20, 2-Ethyl-2-({[4-(trifluoromethyl)phenyl]carbamoyl}amino)butanoic acid] belongs 11.6 µM; to `CCC(CC)(NC(=O)Nc1ccc(SC(F)(F)F)cc1)C(=O)O` [Example 14, 2-Ethyl-2-[({4-[(trifluoromethyl)sulfanyl]phenyl}carbamoyl)amino]butanoic acid], 0.4 µM.
The result for `CC(C)CC(C)(NC(=O)Nc1ccc(OC(F)(F)F)cc1)C(=O)O` (stereo not shown) [Example 3, 2-Methyl-N-{[4-(trifluoromethoxy)phenyl]carbamoyl}leucine] reads 8.7 µM; that for `CCCC(CC)(NC(=O)Nc1ccc(OC(F)(F)F)cc1)C(=O)O` (stereo not shown) [Example 6, 2-Ethyl-N-{[4-(trifluoromethoxy)phenyl]carbamoyl}norvaline], 5.3 µM.
Regarding `CC[C@@](C)(NC(=O)Nc1ccc(Cl)c(Cl)c1)C(=O)O` [Example 29, N-[(3,4-Dichlorophenyl)carbamoyl]-D-isovaline], the IC50 is 15.5 µM.
To `CCC(CC)(NC(=O)Nc1cc(F)cc(C#N)c1)C(=O)O` [Example 36, 2-{[(3-Cyano-5-fluorophenyl)carbamoyl]amino}-2-ethylbutanoic acid] belongs 20.1 µM; to `CC[C@@](C)(NC(=O)Nc1ccc(OC(F)F)c(Cl)c1)C(=O)O` [Example 18, N-{[3-Chloro-4-(difluoromethoxy)phenyl]carbamoyl}-D-isovaline], 5.3 µM; to `CCC(CC)(NC(=O)Nc1ccc(Cl)s1)C(=O)O` [Example 28, 2-{[(5-Chlorothiophen-2-yl)carbamoyl]amino}-2-ethylbutanoic acid], 3.2 µM.
The result for `CC[C@@](C)(NC(=O)Nc1cccc(Cl)c1)C(=O)O` [Example 26, N-[(3-Chlorophenyl)carbamoyl]-D-isovaline] reads 13.2 µM; that for `CC[C@@](C)(NC(=O)Nc1cccc(F)c1)C(=O)O` [Example 24, N-[(3-Fluorophenyl)carbamoyl]-D-isovaline], 33.2 µM; that for `CC[C@@](C)(NC(=O)Nc1ccc(OC(F)F)cc1F)C(=O)O` [Example 17, N-{[4-(Difluoromethoxy)-2-fluorophenyl]carbamoyl}-D-isovaline], 12.3 µM.
The result for `CCC(NC(=O)Nc1cccc(C#N)c1)(C(=O)O)C1CC1` (stereo not shown) [Example 32, 2-{[(3-Cyanophenyl)carbamoyl]amino}-2-cyclopropylbutanoic acid] reads 1 µM.
Turning to `CCC(CC)(NC(=O)Nc1ccc(C(C)C#N)cc1)C(=O)O` (stereo not shown) [Example 40, 2-({[4-(1-Cyanoethyl)phenyl]carbamoyl}amino)-2-ethylbutanoic acid], the IC50 amounted to 5.8 µM.
To `N#CCc1ccc(NC(=O)NC(C(=O)O)(C2CC2)C2CC2)cc1` [Example 38, ({[4-(Cyanomethyl)phenyl]carbamoyl}amino)(dicyclopropyl)acetic acid] belongs 3.4 µM.
The result for `CC[C@@](C)(NC(=O)Nc1ccc(OC(F)(F)F)c(C#N)c1)C(=O)O` [Example 19, N-{[3-Cyano-4-(trifluoromethoxy)phenyl]carbamoyl}-D-isovaline] reads 35.6 µM.
